{"source": "patent US11952586B2", "about": "“B-cell cultivation method” (Hoffmann-La Roche Inc., priority 2017, dated 2024)", "key": {"[1]": {"tested_on": "single deposited B-cells", "experiment": "co-cultivation of single deposited B-cells with EL-4 B5 feeder cells; IgG in supernatant by ELISA", "format": "cell-based, rabbit", "conditions": "addition of PAP-1 to the co-cultivation", "description": "Single cell sorted B-cells were cultured in 96-well plates with 200 μl/well EL-4 B5 medium with Pansorbin Cells (SAC) (Calbiochem (Merck), Darmstadt, Deutschland), EL-4 B5 cells (0-5×10^4/well) and rabbit thymocyte supernatant or cytokine mix, respectively, for 7 days at 37° C. in an atmosphere of 5% CO2 in the incubator. B-cell culture supernatants were removed for screening and the cells harvested immediately for variable region gene cloning or frozen at −80° C. in 100 μl RLT buffer (Qiagen, Hilden, Germany).\nA mixture of 0.5 μg/ml of biotinylated mouse anti-rabbit IgG antibody (Sigma-Aldrich) and 0.35 μg/ml anti-rabbit IgG HRP conjugate (Sigma-Aldrich) was transferred to 384 well streptavidin coated microtiter plates (MicroCoat Biotechnologie GmbH). Dilutions of B-cell supernatants in PBS supplemented with 0.5% BSA and 0.05% Tween®-20 were added and incubated for 90 min at RT. After repeated washing (6×) with PBST (phosphate buffered saline with 0.2% Tween buffer the plates were developed with BM Blue® HRP substrate solution and color formation was measured by absorbance at 370 nm. A commercial rabbit IgG (Sigma-Aldrich) was used as a calibration standard."}, "[2]": {"tested_on": "murine B-cells", "experiment": "co-cultivation of murine B-cells with feeder mix additives", "format": "cell-based", "description": "(§1) Thus, in one embodiment of all methods as reported herein the feeder mix for the co-cultivation of murine- or hamster-B-cells comprises IL-4.\n(§2) Thus, in one embodiment of all methods as reported herein the feeder mix for the co-cultivation of murine-B-cells or hamster-B-cells comprises IL-6. In one embodiment the IL-6 is added at a concentration of 50 ng/ml. In one embodiment IL-6 is added at a concentration of 10 ng/ml, if high IgG-concentration is required. In one embodiment the addition of IL-6 is after three days of co-cultivation of the selected B-cells and EL-4 B5 cells."}, "[3]": {"tested_on": "hamster B-cells", "experiment": "co-cultivation of hamster B-cells with feeder mix additives", "format": "cell-based", "description": "as §1, §2"}}}
{"molecule": "O=c1ccc2c(OCCCCOc3ccccc3)c3ccoc3cc2o1", "note": "[PAP-1, 5-(4-phenoxybutoxy) psoralene]", "values": [{"measurement": "number of B-cell clones", "setting": "[1]", "result": "without decreasing the number of B-cell clones"}, {"measurement": "rbIgG secretion of B-cells", "setting": "[1]", "result": "increases the rbIgG secretion of B-cells in a concentration dependent manner"}]}
{"molecule": "IL-6: interleukin-6, cytokine added to the feeder mix", "values": [{"measurement": "number of IgG+-wells/cell clones", "setting": "[2]; addition of IL-6 to the feeder mix, murine-B-cells", "result": "increased number of IgG^+-wells/cell clones"}, {"measurement": "IgG-concentration", "setting": "[3]; addition of IL-6 to the feeder mix, hamster-B-cells", "result": "increased IgG-concentration"}]}
{"molecule": "IL-4: interleukin-4, cytokine added to the feeder mix (protein, UniProt P05112 25-153, looked up) Interleukin-4: HKCDITLQEIIKTLNSLTEQKTLCTELTVTDIFAASKNTTEKETFCRAATVLRQFYSHHEKDTRCLGATAQQFHRHKQLIRFLKRLDRNLWGLAGLNSCPVKEANQSTLENFLERLKTIMREKYSKCSS", "values": [{"measurement": "number of IgG+-wells/cell clones and IgG-concentration in the supernatant", "setting": "[2]; addition of IL-4 to the feeder mix, murine B-cells", "result": "increases the number of IgG^+-wells/cell clones as well as the IgG-concentration in the supernatant"}, {"measurement": "number of IgG+-wells/cell clones and IgG-concentration in the supernatant", "setting": "[3]; addition of IL-4 to the feeder mix, hamster B-cells", "result": "increases the number of IgG^+-wells/cell clones as well as the IgG-concentration in the supernatant"}]}
